Literature values as cited in patent US9962342B1, “Pharmaceutical composition containing guaifenesin and application thereof” (Sunny Pharmtech Inc., priority 2017, dated 2018).

Details: in vivo

In the case of COc1ccccc1OCC(O)CO (stereo not shown) [Guaifenesin], the half-life is given as “approximately 1 hour”.
